Assay results: patent publication US20260015315A1, “AMINO LIPID COMPOUND, PREPARATION METHOD THEREFOR, COMPOSITION THEREOF AND APPLICATION THEREOF” (SHENZHEN SHENXIN BIOTECHNOLOGY CO., LTD., priority 2022, published 2026)

Tested on: BALB/c mice
Assay: In vivo delivery of lipid nanoparticle encapsulating luciferase mRNA (Fluc mRNA), IVIS imaging
Conditions: for Total flux (fluorescence expression intensity): Fluc mRNA-LNP (amino lipid:DSPC:CHO-HP:PEG2000-DMG 48:10:40.5:1.5), whole body; for Total flux (fluorescence expression intensity) / Liver (fluorescence expression intensity) / Spleen (fluorescence expression intensity): 75 μL tail vein IV, female BALB/c mice, IVIS 6 hours after injection; for Liver (fluorescence expression intensity) / Spleen (fluorescence expression intensity) / (Spleen/Total Flux) * 100% / Multiple of spleen delivery/total delivery (Spleen/Total Flux) to Compound 118: Fluc mRNA-LNP; for (Spleen/Total Flux) * 100% / Multiple of spleen delivery/total delivery (Spleen/Total Flux) to Compound 118: tail vein IV, BALB/c mice, 6 hours; for Multiple of spleen delivery/total delivery (Spleen/Total Flux) to Compound 118: relative to Compound 118
Description: The amino lipid compound of the present disclosure, a helper lipid, a structural lipid, and a PEG-lipid were separately dissolved in absolute ethanol to prepare respective solutions at concentrations of 20 mg/mL, 10 mg/mL, 20 mg/mL, and 25 mg/mL, respectively. The above four solutions were pipetted at a molar ratio of the amino lipid compound: DSPC:CHO-HP:PEG2000-DMG of 48:10:40.5:1.5, and mixed well to prepare an alcohol phase.
(2) Encapsulation: The water phase and the alcohol phase were injected into a microfluidic chip at a flow rate of water phase:alcohol phase=12 mL/min: 4 mL/min by using a microfluidic preparation instrument (MPE-L2), and encapsulation was carried out at a flow rate of water phase:alcohol phase=9 mL/min: 3 mL/min to obtain mRNA-encapsulating lipid nanoparticle (mRNA-LNP).
(3) Dialysis: The product of step (2) was loaded in a dialysis bag and placed in a Tris Buffer-8% sucrose solution for replacement to remove ingredients such as residual ethanol, unassembled lipids. Dialysis was conducted for 2 h with magnetic stirring at room temperature and under protection from light (dialysate was replaced every 1 hour).
(4) The product of step (3) was sterilized by passing through a 0.22 μm microporous membrane, and then packaged.
Lipid nanoparticle formulations encapsulating Flue mRNA were prepared, with a concentration of Flue mRNA of 0.2 μg/μL, a mass ratio of Flue mRNA to Lipid of 1:10, a particle size of 80-130 nm, and a encapsulation efficiency of 80% or higher.
• Animal preparation: Female BALB/c mice of 6-8 weeks old were selected and raised in an SPF grade breeding room. Animal testing was conducted in strict accordance with the guidelines of national health institutions and animal ethics requirements.
In vivo Delivery: prior to injection of the test LNP formulations, the LNP formulations were gently and repeatedly inverted to thoroughly mix the formulation samples. A corresponding amount of the formulation samples were aspirated with a 1 ml insulin syringe, and the LNP formulations were injected by tail vein injection (IV), with 3 mice in duplicate per formulation. Each mouse was injected with 75 μL of the luciferase mRNA (Flue mRNA)-encapsulating lipid nanoparticle formulation prepared in Experimental Example 1.
6 hours after injection of LNP formulations, mice were injected with 200 μL D-Luciferin luciferase developing substrate (Catalog No. 122799; Manufacturer: Perkin Elmer). After the substrate was injected, the mice were anesthetized by injection of 200 μl of 2.5% avertin, and the injection time of luciferase developing substrate was recorded.
The fluorescence expression intensity induced by the lipid nanoparticle encapsulating luciferase mRNA (Flue mRNA) with a representative amino lipid compound is shown in Table 4, with the amino lipid compound 118 as a control.

Compound: CCCCCCOCCCC(=O)N(CCN(C)C)C(CCCCCCCCC(=O)OC(CCCCCC)CCCCCC)CCCCCCCCC(=O)OC(CCCCCC)CCCCCC [compound 156]
- Total flux (fluorescence expression intensity): 3.07E+07
- Liver (fluorescence expression intensity): 9.75E+06
- Spleen (fluorescence expression intensity): 2.34E+05
- (Spleen/Total Flux) * 100%: 0.76%
- Multiple of spleen delivery/total delivery (Spleen/Total Flux) to Compound 118: 0.67

Compound: CCCCCCOCC(=O)N(CCCN(C)C)C(CCCCCCCCC(=O)OC(CCCCCC)CCCCCC)CCCCCCCCC(=O)OC(CCCCCC)CCCCCC [compound 121]
- Total flux (fluorescence expression intensity): 3.07E+07
- Spleen (fluorescence expression intensity): 7.14E+06
- (Spleen/Total Flux) * 100%: 23.26%
- Multiple of spleen delivery/total delivery (Spleen/Total Flux) to Compound 118: 20.40

Compound: CCCCCCC(CCCCCC)OC(=O)CCCCCCCCC(CCCCCCCCC(=O)OC(CCCCCC)CCCCCC)N(CCCN(C)C)C(=O)COCCCCC [compound 120]
- Total flux (fluorescence expression intensity): 3.48E+07
- Spleen (fluorescence expression intensity): 6.46E+06
- (Spleen/Total Flux) * 100%: 18.56%
- Multiple of spleen delivery/total delivery (Spleen/Total Flux) to Compound 118: 16.28

Compound: CCCCCCC(CCCCCC)OC(=O)CCCCCCCCC(CCCCCCCCC(=O)OC(CCCCCC)CCCCCC)N(CCCCN(C)C)C(=O)COCCCCC [compound 167]
- Total flux (fluorescence expression intensity): 4.02E+07
- Liver (fluorescence expression intensity): 4.42E+06
- Spleen (fluorescence expression intensity): 7.64E+06
- (Spleen/Total Flux) * 100%: 19.00%
- Multiple of spleen delivery/total delivery (Spleen/Total Flux) to Compound 118: 16.67

Compound: CCCCCCCCOCCC(=O)N(CCCN(C)C)C(CCCCCCCCC(=O)OC(CCCCCC)CCCCCC)CCCCCCCCC(=O)OC(CCCCCC)CCCCCC [compound 128]
- Total flux (fluorescence expression intensity): 5.62E+07
- Spleen (fluorescence expression intensity): 3.01E+06
- (Spleen/Total Flux) * 100%: 5.36%
- Multiple of spleen delivery/total delivery (Spleen/Total Flux) to Compound 118: 4.70

Compound: CCCCCCOCC(=O)N(CCCCN(C)C)C(CCCCCCCCC(=O)OC(CCCCCC)CCCCCC)CCCCCCCCC(=O)OC(CCCCCC)CCCCCC [compound 168]
- Total flux (fluorescence expression intensity): 2.68E+07
- Liver (fluorescence expression intensity): 9.12E+06
- Spleen (fluorescence expression intensity): 8.95E+06
- (Spleen/Total Flux) * 100%: 33.40%
- Multiple of spleen delivery/total delivery (Spleen/Total Flux) to Compound 118: 29.29

Compound: CCCCCCCOCC(=O)N(CCCN(C)C)C(CCCCCCCCC(=O)OC(CCCCCC)CCCCCC)CCCCCCCCC(=O)OC(CCCCCC)CCCCCC [compound 122]
- Total flux (fluorescence expression intensity): 3.56E+07
- Spleen (fluorescence expression intensity): 3.02E+06
- (Spleen/Total Flux) * 100%: 8.48%
- Multiple of spleen delivery/total delivery (Spleen/Total Flux) to Compound 118: 7.44

Compound: CCCCCCOCCC(=O)N(CCN(C)C)C(CCCCCCCCC(=O)OC(CCCCCC)CCCCCC)CCCCCCCCC(=O)OC(CCCCCC)CCCCCC [compound 151]
- Total flux (fluorescence expression intensity): 2.29E+07
- Liver (fluorescence expression intensity): 8.91E+06
- Spleen (fluorescence expression intensity): 1.30E+05
- (Spleen/Total Flux) * 100%: 0.57%
- Multiple of spleen delivery/total delivery (Spleen/Total Flux) to Compound 118: 0.50

Compound: CCCCCCOCCCC(=O)N(CCCCN(C)C)C(CCCCCCCCC(=O)OC(CCCCCC)CCCCCC)CCCCCCCCC(=O)OC(CCCCCC)CCCCCC [compound 178]
- Total flux (fluorescence expression intensity): 6.68E+07
- Liver (fluorescence expression intensity): 1.15E+07
- Spleen (fluorescence expression intensity): 3.95E+06
- (Spleen/Total Flux) * 100%: 5.91%
- Multiple of spleen delivery/total delivery (Spleen/Total Flux) to Compound 118: 5.19

Compound: CCCCCCC(CCCCCC)OC(=O)CCCCCCCCC(CCCCCCCCC(=O)OC(CCCCCC)CCCCCC)N(CCCCN(C)C)C(=O)CCOCCCC [compound 171]
- Total flux (fluorescence expression intensity): 1.15E+07
- Liver (fluorescence expression intensity): 5.33E+06
- Spleen (fluorescence expression intensity): 3.97E+06
- (Spleen/Total Flux) * 100%: 34.52%
- Multiple of spleen delivery/total delivery (Spleen/Total Flux) to Compound 118: 30.28

Compound: CCCCCCC(CCCCCC)OC(=O)CCCCCCCCC(CCCCCCCCC(=O)OC(CCCCCC)CCCCCC)N(CCCCN(C)C)C(=O)CCOCCCCC [compound 172]
- Total flux (fluorescence expression intensity): 8.64E+07
- Liver (fluorescence expression intensity): 3.10E+07
- Spleen (fluorescence expression intensity): 9.69E+06
- (Spleen/Total Flux) * 100%: 11.22%
- Multiple of spleen delivery/total delivery (Spleen/Total Flux) to Compound 118: 9.84

Compound: CCCCCCCOCCCC(=O)N(CCN(C)C)C(CCCCCCCCC(=O)OC(CCCCCC)CCCCCC)CCCCCCCCC(=O)OC(CCCCCC)CCCCCC [compound 157]
- Total flux (fluorescence expression intensity): 2.80E+07
- Liver (fluorescence expression intensity): 1.07E+07
- Spleen (fluorescence expression intensity): 2.26E+05
- (Spleen/Total Flux) * 100%: 0.81%
- Multiple of spleen delivery/total delivery (Spleen/Total Flux) to Compound 118: 0.71

Compound: CCCCCCCCOCC(=O)N(CCN(C)C)C(CCCCCCCCC(=O)OC(CCCCCC)CCCCCC)CCCCCCCCC(=O)OC(CCCCCC)CCCCCC [compound 148]
- Total flux (fluorescence expression intensity): 4.45E+06
- Spleen (fluorescence expression intensity): 1.07E+05
- (Spleen/Total Flux) * 100%: 2.40%
- Multiple of spleen delivery/total delivery (Spleen/Total Flux) to Compound 118: 2.11

Compound: CCCCCCCOCCC(=O)N(CCCN(C)C)C(CCCCCCCCC(=O)OC(CCCCCC)CCCCCC)CCCCCCCCC(=O)OC(CCCCCC)CCCCCC [compound 127]
- Total flux (fluorescence expression intensity): 3.56E+07
- Spleen (fluorescence expression intensity): 4.60E+06
- (Spleen/Total Flux) * 100%: 12.92%
- Multiple of spleen delivery/total delivery (Spleen/Total Flux) to Compound 118: 11.33

Compound: CCCCCCC(CCCCCC)OC(=O)CCCCCCCCC(CCCCCCCCC(=O)OC(CCCCCC)CCCCCC)N(CCCCN(C)C)C(=O)CCCOCCCCC [compound 177]
- Total flux (fluorescence expression intensity): 2.52E+07
- Liver (fluorescence expression intensity): 5.04E+06
- Spleen (fluorescence expression intensity): 3.23E+06
- (Spleen/Total Flux) * 100%: 12.82%
- Multiple of spleen delivery/total delivery (Spleen/Total Flux) to Compound 118: 11.24

Compound: CCCCCCC(CCCCCC)OC(=O)CCCCCCCCC(CCCCCCCCC(=O)OC(CCCCCC)CCCCCC)N(CCCN(C)C)C(=O)CCOCCCC [compound 124]
- Total flux (fluorescence expression intensity): 3.45E+07
- Spleen (fluorescence expression intensity): 6.18E+06
- (Spleen/Total Flux) * 100%: 17.91%
- Multiple of spleen delivery/total delivery (Spleen/Total Flux) to Compound 118: 15.71

Compound: CCCCCCCOCCCC(=O)N(CCCN(C)C)C(CCCCCCCCC(=O)OC(CCCCCC)CCCCCC)CCCCCCCCC(=O)OC(CCCCCC)CCCCCC [compound 132]
- Total flux (fluorescence expression intensity): 2.70E+07
- Spleen (fluorescence expression intensity): 6.10E+06
- (Spleen/Total Flux) * 100%: 22.59%
- Multiple of spleen delivery/total delivery (Spleen/Total Flux) to Compound 118: 19.82

Compound: CCCCCCCCOCC(=O)N(CCCCN(C)C)C(CCCCCCCCC(=O)OC(CCCCCC)CCCCCC)CCCCCCCCC(=O)OC(CCCCCC)CCCCCC [compound 170]
- Total flux (fluorescence expression intensity): 2.89E+07
- Liver (fluorescence expression intensity): 1.34E+07
- Spleen (fluorescence expression intensity): 1.07E+07
- (Spleen/Total Flux) * 100%: 37.02%
- Multiple of spleen delivery/total delivery (Spleen/Total Flux) to Compound 118: 32.48

Compound: CCCCCCCCOCCC(=O)N(CCCCN(C)C)C(CCCCCCCCC(=O)OC(CCCCCC)CCCCCC)CCCCCCCCC(=O)OC(CCCCCC)CCCCCC [compound 175]
- Total flux (fluorescence expression intensity): 5.15E+07
- Liver (fluorescence expression intensity): 1.57E+07
- Spleen (fluorescence expression intensity): 1.21E+07
- (Spleen/Total Flux) * 100%: 23.50%
- Multiple of spleen delivery/total delivery (Spleen/Total Flux) to Compound 118: 20.61

Compound: CCCCCCCOCC(=O)N(CCCCN(C)C)C(CCCCCCCCC(=O)OC(CCCCCC)CCCCCC)CCCCCCCCC(=O)OC(CCCCCC)CCCCCC [compound 169]
- Total flux (fluorescence expression intensity): 1.17E+07
- Liver (fluorescence expression intensity): 6.59E+06
- Spleen (fluorescence expression intensity): 5.11E+06
- (Spleen/Total Flux) * 100%: 43.68%
- Multiple of spleen delivery/total delivery (Spleen/Total Flux) to Compound 118: 38.31

Compound: CCCCCCC(CCCCCC)OC(=O)CCCCCCCCC(CCCCCCCCC(=O)OC(CCCCCC)CCCCCC)N(CCCCN(C)C)C(=O)COCCCC [compound 166]
- Total flux (fluorescence expression intensity): 1.25E+07
- Liver (fluorescence expression intensity): 7.74E+06
- Spleen (fluorescence expression intensity): 8.07E+06
- (Spleen/Total Flux) * 100%: 64.56%
- Multiple of spleen delivery/total delivery (Spleen/Total Flux) to Compound 118: 56.63
